According to article PMC9856672, “SGC-CAMKK2-1: A Chemical Probe for CAMKK2” (Cells, 2023):

What was measured:
[1] = molecular target: CAMKK2 (Homo sapiens, UniProt Q96RR4); set-up: purified recombinant CAMKK2 (100 pM) was incubated in assay buffer; method as in earlier work; details: reported CAMKK2 inhibitors; ref 47 (Price et al.); cited from earlier work
[2] = system: p-AMPK(Thr172) in C4-2 cells; assay: Western blot of p-AMPK(Thr172) in C4-2 prostate cancer cells; type: cell-based; details: C4-2, 24 h, 24 h treatment, three individual experiments, read-out: IC50 for decrease of p-AMPK(Thr172) normalized to total AMPK
Procedure: C4-2 cells were plated in 6-well plates in IMEM medium containing 0.5% FBS. After 72 h, the cells were then treated with the compounds for 24 h before the media was aspirated and cells were washed twice in ice-cold PBS. Cells were lysed using RIPA buffer containing phosphatase and protease inhibitor cocktail while rotating for 30 min at 4 °C. In each lane, 30 μg/well of protein lysate was loaded into a 10% SDS-PAGE gel and run for 1 h and 30 min. Gels were then transferred overnight in a TRIS-glycine/methanol transfer buffer onto a PVDF membrane at 4 °C. Membranes were blocked, incubated with primary overnight at 4 °C, washed, incubated with secondary at room temperature for 1 h, washed, and then developed on an Azure Biosystems C-600 imager. Densitometry was performed using ImageJ. Total-AMPK was normalized to GAPDH and then p-AMPK was normalized to normalized total-AMPK. Normalized p-AMPK was used to calculate IC50 in GraphPad Prism 9.5.0. Primary antibodies used were from Cell Signaling (Danvers, MA, USA; Phospho-AMPKα (Thr172) (40H9) Rabbit mAb: Cat#: 2535; AMPKα (D5A2) Rabbit mAb Cat#: 5831), BD Bioscience (Franklin Lakes, NJ, USA; CAMKK2 mouse mAb Cat# 610544), and Sigma (St. Louis, MO, USA; GAPDH rabbit pAb: Cat# G9545). Secondary antibody (Goat Anti-Rabbit IgG (H + L)-HRP Conjugate; Cat#:1706515) was from Bio-Rad Laboratories (Hercules, CA, USA).
In this experiment, IC50 was calculated via quantifying changes in p-AMPK(Thr172) normalized to total AMPK levels.

[3] = Single dose IP pharmacokinetic study in mice; type: in vivo, CD-1 mice; details: mouse, 10 mg/kg IP, plasma at 0.5, 1, 3, 8 h
Procedure: CD-1 mice with weights 23–25 g were purchased from Charles River Laboratories.
The animal experiments were performed at Alliance Pharma (Malvern, PA, USA) in accordance with the guide for the care and use of laboratory animals. Alliance Pharma is accredited by the Association for Assessment and Accreditation of Laboratory Animal Care (AAALAC).
The test compounds were dissolved in DMSO and then diluted to the appropriate concentration with the vehicle. For formulation we targeted the minimal amount of DMSO that could be used in combination with a formulation composed of 0.5% HPMC/0.2% Polysorbate 80. […] Blood was collected at t = 0.5, 1, 3, and 8 h and immediately spun for 3 min, the plasma was collected, and compound levels were quantified with HPLC/MS. The raw data are available in the Supplemental Information.
With the probe molecule having favorable selectivity and potency in vitro and in a cellular context, we next wanted to determine its suitability for in vivo experiments. SGC-CAMKK2-1 (5) was progressed to a single dose mouse intraperitoneal (I.P) experiment.

Compound	pIC50 (CAMKK2) [1]	IC50 [2] [µM]	plasma concentration / in vivo PK (in words) [3]
CN(C)Cc1ccc(-c2cc3c(-c4ccc(C(N)=O)cc4)ccnc3[nH]2)cc1 [Compound 3]	8.5	–	–
O=C(O)c1ccc(-c2ccnc(Nc3cccc(-c4ccccc4)c3)n2)cc1 [Compound 4]	8.1	–	–
O=C(O)c1ccc2c3c1cccc3c(=O)n1c3ccccc3nc21 [STO-609, reference compound]	–	10.7	considerably higher plasma concentrations than SGC-CAMKK2-1
